Laboratory results from paper PMC5145856 (Frontiers in Cellular Neuroscience, 2016).
“And” between values parts separate entries of the source, which are not always exact repeats. Equal values may be shown once. Read-outs that look alike come from different tables or passages of the source.

Tests used:
OR1/ORco [1] = biological target: T1, OR1/ORco (Anopheles gambiae, UniProt Q7QCC7+Q8WTE7); design: method as in Tsitoura et al., 2015; conditions: agonist alone, ref Tsitoura et al., 2015; cited from earlier work
T1 construct: expressed in transfected cells; host or cells: Trichoplusia ni BTI-Tn 5B1-4 HighFive (Hi5) cells, transient transfection with pEIA plasmids
T1 sequence (Q8WTE7 1-417): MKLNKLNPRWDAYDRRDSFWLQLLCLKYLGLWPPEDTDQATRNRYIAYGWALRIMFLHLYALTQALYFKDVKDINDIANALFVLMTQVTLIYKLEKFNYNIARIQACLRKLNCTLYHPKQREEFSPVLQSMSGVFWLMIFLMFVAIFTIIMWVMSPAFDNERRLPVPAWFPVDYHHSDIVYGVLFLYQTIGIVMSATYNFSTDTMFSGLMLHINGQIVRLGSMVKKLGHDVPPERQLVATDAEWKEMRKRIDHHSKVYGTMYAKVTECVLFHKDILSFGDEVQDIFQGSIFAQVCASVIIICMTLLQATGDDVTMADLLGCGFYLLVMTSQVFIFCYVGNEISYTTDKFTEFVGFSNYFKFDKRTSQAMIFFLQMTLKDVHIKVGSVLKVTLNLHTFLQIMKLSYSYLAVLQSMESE
T1 sequence (Q7QCC7 1-478): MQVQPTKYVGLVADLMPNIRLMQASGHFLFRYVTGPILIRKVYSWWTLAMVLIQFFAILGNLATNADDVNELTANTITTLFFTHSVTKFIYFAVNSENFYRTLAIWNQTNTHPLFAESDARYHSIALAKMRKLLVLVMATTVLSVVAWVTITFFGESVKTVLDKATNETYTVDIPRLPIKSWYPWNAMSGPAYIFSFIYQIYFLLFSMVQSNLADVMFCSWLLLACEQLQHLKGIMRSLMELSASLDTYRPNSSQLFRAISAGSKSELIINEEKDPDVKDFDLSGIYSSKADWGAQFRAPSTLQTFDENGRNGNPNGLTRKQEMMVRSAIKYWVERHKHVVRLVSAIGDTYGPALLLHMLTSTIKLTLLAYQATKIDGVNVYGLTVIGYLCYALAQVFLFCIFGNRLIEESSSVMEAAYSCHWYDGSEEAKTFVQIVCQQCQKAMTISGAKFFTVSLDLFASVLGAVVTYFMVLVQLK

OR1/ORco [2] = biological target: T1, OR1/ORco; test: Photina Ca2+ bioluminescence assay in Hi5 cells expressing OR1/ORco; format: cell-based; conditions: for EC50: OR1+ORco, agonist alone
OR53/ORco = OR53/ORco (Anopheles gambiae, UniProt A0ABK8FS74+Q7QCC7); format: cell-based
Sequence of OR53/ORco (A0ABK8FS74 entry or part of it, one chain of several): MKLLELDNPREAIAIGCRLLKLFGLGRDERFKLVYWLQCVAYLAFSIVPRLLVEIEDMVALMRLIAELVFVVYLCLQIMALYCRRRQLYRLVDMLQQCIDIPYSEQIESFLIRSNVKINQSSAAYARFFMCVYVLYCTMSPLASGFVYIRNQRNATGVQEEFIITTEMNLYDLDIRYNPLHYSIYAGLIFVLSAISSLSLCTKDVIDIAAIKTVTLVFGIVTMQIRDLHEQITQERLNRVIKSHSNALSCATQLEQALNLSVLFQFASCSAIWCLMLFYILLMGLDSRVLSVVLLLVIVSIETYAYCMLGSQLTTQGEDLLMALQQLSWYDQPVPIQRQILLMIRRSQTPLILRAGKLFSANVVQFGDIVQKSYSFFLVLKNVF

OR9/ORco = OR9/ORco (Anopheles gambiae, UniProt A0ABK8FPD1+Q7QCC7); format: cell-based
Sequence of OR9/ORco (A0ABK8FPD1 entry or part of it, one chain of several): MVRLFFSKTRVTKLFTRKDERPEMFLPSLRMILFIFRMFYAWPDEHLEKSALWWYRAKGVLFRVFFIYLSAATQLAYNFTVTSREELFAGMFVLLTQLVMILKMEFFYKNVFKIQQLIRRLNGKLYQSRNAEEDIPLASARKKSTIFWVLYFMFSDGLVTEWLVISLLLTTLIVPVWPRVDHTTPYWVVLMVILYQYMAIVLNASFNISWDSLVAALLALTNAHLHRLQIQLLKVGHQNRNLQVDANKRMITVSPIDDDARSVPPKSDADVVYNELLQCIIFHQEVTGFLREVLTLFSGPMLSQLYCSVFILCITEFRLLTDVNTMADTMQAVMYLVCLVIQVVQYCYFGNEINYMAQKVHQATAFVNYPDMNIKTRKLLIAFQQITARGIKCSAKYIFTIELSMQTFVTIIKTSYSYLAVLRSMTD

ORco [3] = biological target: T2, ORco (Anopheles gambiae, UniProt Q7QCC7); design: method as in Tsitoura et al., 2015; conditions: ORco homomer; ref Tsitoura et al., 2015; cited from earlier work
T2 construct: expressed in transfected cells; host or cells: Trichoplusia ni BTI-Tn 5B1-4 HighFive (Hi5) cells, transient transfection with pEIA.ORco and pEIA.Photina
T2 sequence (Q7QCC7 1-478): T1 sequence (Q7QCC7 1-478)

OR2/ORco [4] = biological target: T3, OR2/ORco (Anopheles gambiae, UniProt Q7QCC7+Q8WTE6); test: Photina Ca2+ bioluminescence assay in Hi5 cells expressing OR2/ORco; format: cell-based; conditions: for EC50: OR2+ORco, agonist alone
T3 construct: expressed in transfected cells; host or cells: Trichoplusia ni BTI-Tn 5B1-4 HighFive (Hi5) cells, transient transfection with pEIA plasmids
T3 sequence (Q8WTE6 1-378): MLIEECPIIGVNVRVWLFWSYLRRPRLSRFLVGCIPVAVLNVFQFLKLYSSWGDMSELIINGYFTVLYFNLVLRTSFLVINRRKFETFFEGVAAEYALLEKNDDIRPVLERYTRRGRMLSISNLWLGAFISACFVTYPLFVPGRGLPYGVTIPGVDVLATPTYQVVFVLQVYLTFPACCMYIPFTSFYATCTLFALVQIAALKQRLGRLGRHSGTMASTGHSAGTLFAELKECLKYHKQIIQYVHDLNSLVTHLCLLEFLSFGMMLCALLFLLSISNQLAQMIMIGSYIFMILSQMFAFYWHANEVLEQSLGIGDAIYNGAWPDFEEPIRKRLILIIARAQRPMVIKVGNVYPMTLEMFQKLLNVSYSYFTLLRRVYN
T3 sequence (Q7QCC7 1-478): T1 sequence (Q7QCC7 1-478)

ORco [5] = biological target: T2, ORco; test: Photina Ca2+ bioluminescence assay in Hi5 cells expressing ORco alone; format: cell-based; conditions: ORco homomer
OR2/ORco [6] = biological target: T3, OR2/ORco; design: method as in Tsitoura et al., 2015; conditions: agonist alone, ref Tsitoura et al., 2015; cited from earlier work
[7] = from the fitted dose-response curve, odorant alone

Cc1ccc(O)cc1 [4MP, 4-Methylphenol]
EC50 (OR1/ORco [1]): 2.8 µM | EC50 (OR1/ORco [2]): 1.2 µM | Concentration of the odorant at EC20 (OR1/ORco [2]; [7]): 0.427 µM

CCc1ccc(NC(=O)CSc2nnc(-c3ccncc3)n2CC)cc1 [OA, N-(4-ethylphenyl)-2-((4-ethyl-5-(4-pyridinyl)-4H-1,2,4-triazol-3-yl)thio)acetamide]
Relative efficacy* (relative to ORco) (OR53/ORco): 3.87 fold | Relative efficacy§ (potentiation relative to 100 µM ORx-specific odorant) (OR53/ORco): 140.85 fold and 140 fold and 141 fold | Relative efficacy§ (relative to 100 µM ORx-specific odorant) (OR53/ORco): 16.3 fold | EC50 (OR53/ORco; read-out: EC50): 57 µM and 56.6 µM | Potentiation magnitude at EC20 of odorant (OR9/ORco): ~ 10 fold | Relative efficacy# (relative to 100 µM ORx-specific odorant) (OR9/ORco): 10.4 fold | Relative efficacy* (relative to ORco) (OR9/ORco): 1,05 fold | Relative efficacy§ (potentiation relative to 100 µM ORx-specific odorant) (OR9/ORco): 4.94 fold | Relative efficacy§ (relative to 100 µM ORx-specific odorant) (OR9/ORco): 0.05 fold | EC50 (OR9/ORco; read-out: EC50): 79 µM and 78.7 µM | Potentiation magnitude at EC20 of odorant (OR1/ORco [2]; 10 µM OA (ORcoRAM2), 4MP at EC20 (427nM)): ~ 93 fold | Relative efficacy§ (relative to 100 µM ORx-specific odorant) (OR1/ORco [2]; 10 µM ORcoRAM2 alone vs 100 µM 4MP, Figure 3A): 2.88 fold | Relative efficacy§ (potentiation relative to 100 µM ORx-specific odorant) (OR1/ORco [2]; 10 µM ORcoRAM2 together with 100 µM 4MP vs 100 µM 4MP alone, Figure 3A): 32.45 fold | Relative efficacy# (relative to 100 µM ORx-specific odorant) (OR1/ORco [2]; 100 µM ORcoRAM2 alone vs 100 µM 4MP, Figure 1C): 10,22 fold | EC50 (OR1/ORco [2]): 57 µM and 56.6 µM | EC50 (ORco [3]): 59 µM and 58.9 µM | Potentiation magnitude at EC20 of odorant (OR2/ORco [4]): ~ 53 fold | Relative efficacy§ (relative to 100 µM ORx-specific odorant) (OR2/ORco [4]; 10 µM ORcoRAM2 alone vs 100 µM IN, Figure 3A): 0.57 fold | Relative efficacy§ (potentiation relative to 100 µM ORx-specific odorant) (OR2/ORco [4]; 10 µM ORcoRAM2 together with 100 µM IN vs 100 µM IN alone, Figure 3A): 8.09 fold | Relative efficacy* (relative to ORco) (OR2/ORco [4]; 100 µM ORcoRAM2, no odorant, OR2/ORco vs ORco homomer, Figure 1A): 3.2 fold | Relative efficacy# (relative to 100 µM ORx-specific odorant) (OR2/ORco [4]; 100 µM ORcoRAM2 alone vs 100 µM IN, Figure 1C): 6.22 fold | EC50 (OR2/ORco [4]): 44 µM and 43.6 µM | EC50 (ORco [5]): 97 µM and 96.6 µM | EC50 (ORco [5]; listed as OrcoRAM2): 100 µM

CCc1ccccc1O [2EP, 2-Ethylphenol]
Concentration of the odorant at EC20 (OR9/ORco): 35 µM | Functional response of receptor to odorant (OR9/ORco): responded | EC50 (OR9/ORco; OR9+ORco, agonist alone): 77.6 µM | pEC50 ± SE (OR9/ORco; OR9+ORco, agonist alone): 4.110 ± 0.009062 | EC50 (OR9/ORco; OR9+ORco, agonist alone, listed as 2-ethylphenol): ~78 µM

C=CC(C)(O)CCC=C(C)C (stereo not shown) [LIN, Linalool]
Concentration of the odorant at EC20 (OR53/ORco): 105 µM | Functional response of receptor to odorant (OR53/ORco): clear responses | EC50 (OR53/ORco; OR53+ORco, agonist alone): 181 µM | pEC50 ± SE (OR53/ORco; OR53+ORco, agonist alone): 3.742 ± 0.04453 | EC50 (OR53/ORco; OR53+ORco, agonist alone, listed as linalool): ~180 µM

c1ccc2[nH]ccc2c1 [IN, Indole]
EC50 (OR2/ORco [6]): 3.4 µM | EC50 (OR2/ORco [4]): 5.5 µM | Concentration of the odorant at EC20 (OR2/ORco [4]; [7]): 3.3 µM
